Laboratory results: patent publication US20240207221A1, “TREATMENT OF HYPERAMMONEMIA” (BIOCODEX, priority 2021, published 2024)
Like-named read-outs stand apart in the source and are kept apart here.

Tests used:
Type in all cases: in vivo
[1] = tested on: methionine sulfoximine (MSO)-induced hyperammonemia; settings: for ammonemia: mean ± MSE
Description: (§1) Appl. Neurobiol. 11: 129-139, as follows.
(§2) Male CBA mice (Janvier) weighing between 23 and 27 grams are used after acclimatization for at least 4 days in the animal house (t°=22±2° C.; housing conditions are as follows: SAFE “A04” food; drinking water: tap water; nycthemeral cycle: 12 h/12 h (light: 7 h/19 h-dark: 19 h/7 h)).
(§3) On test day, mice are weighed, marked and placed in individual cages. At t ═O minutes, MSO (0.1 mL/10 g) is administered intraperitoneally, and the mice are carefully observed for 8 hours.
(§4) Stiripentol (0.1 mL/10 g) is administered intraperitoneally at different times with respect to MSO.
Results are expressed as the mean value±MSE.

[2] = tested on: ammonia; assay: Specific effect of stiripentol on ammonemia (without MSO), ABCAM ammonia assay kit; settings: stiripentol 300 mg/kg intraperitoneally without methionine sulfoximine, mice
Description: Blood is collected under isoflurane anesthesia by cardiac puncture (0.5 to 1.0 mL per mouse) to determine ammonia levels. In the case of brain and blood sampling, the mouse is rapidly sacrificed by decapitation: the brain is removed and frozen in liquid nitrogen. The liver can then be removed and rapidly frozen in liquid nitrogen. Samples are stored at −80° C.
Stiripentol (0.1 mL/10 g) is administered intraperitoneally at different times with respect to MSO. […]
Ammonia is determined colorimetrically using a microplate reader (Dynex, model MRX), and an ABCAM kit (ref AB83360, ammonia assay kit) containing several reagents. This kit enables quantitative enzymatic determination of ammonium present in the samples. During the assay, ammonium is converted to a product that reacts with the OxiRed probe for quantification at 570 nm using a microplate reader. […] The kit, stored at −20° C., includes the following components: • Ammonia assay buffer (25 mL): ready to use, bring to room temperature before use; • OxiRed probe (200 μL): ready to use, warm to 37° ° C. to thaw DMSO; • Developer (1 vial): reconstitute with 220 μL of Ammonia assay buffer; • enzyme Mix (1 vial): reconstitute with 220 μL of Ammonia assay buffer; • Converting Enzyme (1 vial): reconstitute with 220 μl of Ammonia assay buffer, • 10 mM NH4Cl standard (100 μL): ready to use, keep on ice during use. […]

[3] = tested on: methionine sulfoximine (MSO)-induced convulsions
Description: as §1, §2
On reception, mice are grouped in batches of 8 to 10 in 1500 U cages (floor area 1500 cm2) with bedding and sizzle dry (SDS) enrichment, in line with the ethical recommendations of European Parliament Directive 2010/63/EU (Sep. 22, 2010).
as §3
The parameters evaluated are the general condition of the animals, according to the Irwin grid (Irwin 1968), the number of convulsions, their onset times and mortality. Animals are euthanized as soon as limit points are reached, or at the end of the 8-hour observation period, according to the ANI07 procedure approved by the Ethics Committee.
as §4
Stiripentol (batch 176) was suspended in 5% (v/v) Tween 80 and 0.9% NaCl.
Results are expressed as the mean value±MSE. The statistical tests used are: • Fisher's exact test for percentages of convulsions and mortality, to determine a significant difference between groups at the 5% threshold, • A one-factor analysis of variance for the assays, to determine whether the pharmacological effect observed is significant at the 5% level (SigmaPlot 3.1 software).
Appl. Neurobiol. 11: 129-139.

[4] = stiripentol 300 mg/kg intraperitoneally, mice (conclusion)
[5] = 300 mg/kg stiripentol intraperitoneally 30 minutes prior to 50 mg/kg MSO
[6] = 300 mg/kg stiripentol intraperitoneally just prior to 50 mg/kg MSO

Question: CC(C)(C)C(O)/C=C/c1ccc2c(c1)OCO2 (stereo not drawn) [stiripentol] was tested. Which ammonemia ([1]; 300 mg/kg stiripentol 30 minutes prior to 50 mg/kg MSO (FIG. 1)) did it give?
Answer: 448 ± 65 µM

Question: What about the reduction of hyperammonemia ([1]; 300 mg/kg stiripentol 30 minutes prior to 50 mg/kg MSO, compared with the MSO-only group) of the same compound?
Answer: 41%

Question: What about the reduction of hyperammonemia ([1]; 300 mg/kg stiripentol just prior to 50 mg/kg MSO, versus MSO only) of the same compound?
Answer: 32%

Question: And the ammonemia ([1]; 300 mg/kg stiripentol just prior to 50 mg/kg MSO)?
Answer: 417 ± 51 µM

Question: And the “effect on MSO-induced hyperammonemia” value [1, 4]?
Answer: significantly reduces

Question: What about the “effect on ammonemia compared with the control group” value [2] of the same compound?
Answer: did not alter ammonemia

Question: And the ammonemia ([2]; plasma, mean ± MSE)?
Answer: 176 ± 14 µM

Question: What about the convulsion rate [3, 5] of the same compound?
Answer: 45%

Question: What about the mortality rate [3, 5] of the same compound?
Answer: 25%

Question: What about the convulsion rate [3, 6] of the same compound?
Answer: 50%

Question: What about the mortality rate [3, 6] of the same compound?
Answer: 25%

Question: And the “effect on methionine sulfoximine-induced convulsions and mortality” value [3, 4]?
Answer: significantly reduces
